# Test results published in ChEMBL document CHEMBL1201862, “PubChem BioAssay data set” (2004).
# The source made the active and inactive calls.
# What was measured:
# [1] = molecular target: T1, Histone-lysine N-methyltransferase NSD2 (Homo sapiens, UniProt O96028); format: biochemical
# T1 sequence (O96028 whole entry): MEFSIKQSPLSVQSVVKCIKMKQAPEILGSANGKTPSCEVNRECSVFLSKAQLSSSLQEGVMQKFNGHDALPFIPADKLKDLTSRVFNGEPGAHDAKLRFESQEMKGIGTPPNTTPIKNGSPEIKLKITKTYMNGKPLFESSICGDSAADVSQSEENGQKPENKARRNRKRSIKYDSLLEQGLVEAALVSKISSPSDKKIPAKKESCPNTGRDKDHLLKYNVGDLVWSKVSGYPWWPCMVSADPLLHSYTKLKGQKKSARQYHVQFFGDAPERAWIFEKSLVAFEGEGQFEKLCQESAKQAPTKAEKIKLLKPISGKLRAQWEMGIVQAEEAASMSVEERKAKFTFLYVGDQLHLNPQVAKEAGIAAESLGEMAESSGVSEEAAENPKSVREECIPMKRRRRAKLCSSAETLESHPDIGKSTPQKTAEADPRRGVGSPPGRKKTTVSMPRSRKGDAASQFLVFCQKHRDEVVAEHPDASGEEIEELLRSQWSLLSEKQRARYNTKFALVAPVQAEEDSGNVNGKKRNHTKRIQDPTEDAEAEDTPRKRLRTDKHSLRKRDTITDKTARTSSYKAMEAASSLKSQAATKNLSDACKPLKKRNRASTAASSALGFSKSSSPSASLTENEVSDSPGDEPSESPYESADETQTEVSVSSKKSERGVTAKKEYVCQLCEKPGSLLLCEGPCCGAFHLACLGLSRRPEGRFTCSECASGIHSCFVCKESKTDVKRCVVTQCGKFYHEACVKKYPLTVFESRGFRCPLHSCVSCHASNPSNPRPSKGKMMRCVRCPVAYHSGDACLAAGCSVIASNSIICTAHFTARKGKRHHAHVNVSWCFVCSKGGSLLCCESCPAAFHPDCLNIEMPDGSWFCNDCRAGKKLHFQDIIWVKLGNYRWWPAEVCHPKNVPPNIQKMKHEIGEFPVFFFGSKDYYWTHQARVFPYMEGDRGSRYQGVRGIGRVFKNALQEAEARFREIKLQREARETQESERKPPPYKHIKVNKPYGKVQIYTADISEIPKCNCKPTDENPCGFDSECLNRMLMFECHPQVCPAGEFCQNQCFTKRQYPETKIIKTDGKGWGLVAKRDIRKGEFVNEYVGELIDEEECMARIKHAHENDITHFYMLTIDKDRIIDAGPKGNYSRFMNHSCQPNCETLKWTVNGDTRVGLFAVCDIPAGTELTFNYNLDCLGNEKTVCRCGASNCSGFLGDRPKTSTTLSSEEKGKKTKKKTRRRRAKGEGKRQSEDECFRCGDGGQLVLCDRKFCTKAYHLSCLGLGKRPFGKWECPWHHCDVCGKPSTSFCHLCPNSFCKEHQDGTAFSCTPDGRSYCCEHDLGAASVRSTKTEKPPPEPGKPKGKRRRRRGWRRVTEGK
# [2] = molecular target: Serine/threonine-protein kinase Chk1 (Homo sapiens, UniProt O14757); format: functional;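 also: measured as one member of a kinome-wide kinase profiling panel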
# [3] = molecular target: cAMP-dependent protein kinase catalytic subunit alpha (Homo sapiens, UniProt P17612); format: functional
# [4] = molecular target: Tyrosine-protein kinase JAK2 (Homo sapiens, UniProt O60674); format: functional;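 also: JAK2 tested as one member of a kinase panel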
# [5] = molecular target: Macrophage colony-stimulating factor 1 receptor (Homo sapiens, UniProt P07333); format: functional;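 also: value comes from the Navigating the Kinome screening panel, CSF1R member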
# [6] = molecular target: Tyrosine-protein kinase JAK3 (Homo sapiens, UniProt P52333); format: functional
# Aurora kinase A = Aurora kinase A (Homo sapiens, UniProt O14965); format: functional;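 also: value from the Navigating the Kinome kinase panel profiling, panel entry STK6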
# [7] = molecular target: BDNF/NT-3 growth factors receptor (Homo sapiens, UniProt Q16620); format: functional;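 also: NTRK2 measured as one member of a broad kinome-wide kinase profiling panel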
# [8] = molecular target: Death-associated protein kinase 3 (Homo sapiens, UniProt O43293); format: functional;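 also: measured as one member of a kinome-wide profiling panel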
# Sequence of Death-associated protein kinase 3 (O43293 whole entry): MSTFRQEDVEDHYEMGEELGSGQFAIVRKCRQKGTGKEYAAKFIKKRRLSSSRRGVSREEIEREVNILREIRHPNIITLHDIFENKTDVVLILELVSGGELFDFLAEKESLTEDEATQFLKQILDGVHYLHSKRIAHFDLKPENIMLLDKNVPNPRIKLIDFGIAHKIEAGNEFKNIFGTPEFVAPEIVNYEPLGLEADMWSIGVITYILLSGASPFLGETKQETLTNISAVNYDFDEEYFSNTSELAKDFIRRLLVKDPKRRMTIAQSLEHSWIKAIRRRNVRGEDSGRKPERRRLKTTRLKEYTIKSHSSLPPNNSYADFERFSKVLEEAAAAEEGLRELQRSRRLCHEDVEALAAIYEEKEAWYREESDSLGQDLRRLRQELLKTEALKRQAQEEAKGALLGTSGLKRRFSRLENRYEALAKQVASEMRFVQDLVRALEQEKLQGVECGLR
# [9] = molecular target: Tyrosine-protein kinase Fyn (Homo sapiens, UniProt P06241); format: functional
# [10] = molecular target: Glycogen synthase kinase-3 beta (Homo sapiens, UniProt P49841); format: functional;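 also: value comes from a broad kinome profiling panel, with GSK3B as the panel member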
# Sequence of Glycogen synthase kinase-3 beta (P49841 whole entry): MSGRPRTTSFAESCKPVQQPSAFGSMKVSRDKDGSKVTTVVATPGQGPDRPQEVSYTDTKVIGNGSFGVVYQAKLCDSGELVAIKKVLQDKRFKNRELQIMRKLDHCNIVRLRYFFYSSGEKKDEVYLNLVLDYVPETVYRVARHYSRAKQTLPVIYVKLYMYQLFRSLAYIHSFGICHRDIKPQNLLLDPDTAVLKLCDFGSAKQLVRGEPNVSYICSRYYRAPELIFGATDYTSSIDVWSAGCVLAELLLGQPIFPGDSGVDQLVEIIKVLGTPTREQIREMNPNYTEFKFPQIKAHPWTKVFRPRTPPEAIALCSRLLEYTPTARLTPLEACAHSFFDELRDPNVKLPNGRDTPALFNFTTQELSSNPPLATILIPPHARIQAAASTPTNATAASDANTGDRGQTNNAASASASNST
# [11] = molecular target: Cyclin-dependent kinase 5 (Homo sapiens, UniProt Q00535); format: functional;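 also: CDK5 measured as one member of a kinase profiling panel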
# [12] = molecular target: Glycogen synthase kinase-3 alpha (Homo sapiens, UniProt P49840); format: functional;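 also: GSK3A result taken from a broad kinome-wide kinase panel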
# Sequence of Glycogen synthase kinase-3 alpha (P49840 whole entry): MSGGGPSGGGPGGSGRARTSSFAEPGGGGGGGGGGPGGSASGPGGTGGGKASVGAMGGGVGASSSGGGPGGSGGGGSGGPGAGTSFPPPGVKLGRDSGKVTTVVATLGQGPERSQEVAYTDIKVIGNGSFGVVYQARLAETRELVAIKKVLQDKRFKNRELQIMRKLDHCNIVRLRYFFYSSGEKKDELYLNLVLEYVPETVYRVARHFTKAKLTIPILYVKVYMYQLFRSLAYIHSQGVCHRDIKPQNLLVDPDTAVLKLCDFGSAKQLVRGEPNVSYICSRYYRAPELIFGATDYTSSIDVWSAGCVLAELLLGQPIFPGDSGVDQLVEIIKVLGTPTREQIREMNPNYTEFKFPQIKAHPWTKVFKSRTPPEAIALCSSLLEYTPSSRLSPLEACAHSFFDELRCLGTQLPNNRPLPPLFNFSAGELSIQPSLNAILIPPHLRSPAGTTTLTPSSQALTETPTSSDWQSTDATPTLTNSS
# [13] = molecular target: Vascular endothelial growth factor receptor 1 (Homo sapiens, UniProt P17948); format: functional;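 also: measured within a kinome-wide profiling panel, FLT1 as the panel member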
# [14] = molecular target: Serine/threonine-protein kinase PAK 4 (Homo sapiens, UniProt O96013); format: functional;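 also: value obtained within a kinome profiling panel in which PAK4 was one of the panel members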
# Aurora kinase B = Aurora kinase B (Homo sapiens, UniProt Q96GD4); format: functional
# [15] = molecular target: Serine/threonine-protein kinase pim-1 (Homo sapiens, UniProt P11309); format: functional
# [16] = molecular target: Ribosomal protein S6 kinase alpha-3 (Homo sapiens, UniProt P51812); format: functional;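 also: measured within a kinome-wide profiling panel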
# [17] = molecular target: Insulin-like growth factor 1 receptor (Homo sapiens, UniProt P08069); experiment: Navigating the Kinome. Panel member name: IGF1R; format: functional
# Sequence of Insulin-like growth factor 1 receptor (P08069 31-736 limits assumed): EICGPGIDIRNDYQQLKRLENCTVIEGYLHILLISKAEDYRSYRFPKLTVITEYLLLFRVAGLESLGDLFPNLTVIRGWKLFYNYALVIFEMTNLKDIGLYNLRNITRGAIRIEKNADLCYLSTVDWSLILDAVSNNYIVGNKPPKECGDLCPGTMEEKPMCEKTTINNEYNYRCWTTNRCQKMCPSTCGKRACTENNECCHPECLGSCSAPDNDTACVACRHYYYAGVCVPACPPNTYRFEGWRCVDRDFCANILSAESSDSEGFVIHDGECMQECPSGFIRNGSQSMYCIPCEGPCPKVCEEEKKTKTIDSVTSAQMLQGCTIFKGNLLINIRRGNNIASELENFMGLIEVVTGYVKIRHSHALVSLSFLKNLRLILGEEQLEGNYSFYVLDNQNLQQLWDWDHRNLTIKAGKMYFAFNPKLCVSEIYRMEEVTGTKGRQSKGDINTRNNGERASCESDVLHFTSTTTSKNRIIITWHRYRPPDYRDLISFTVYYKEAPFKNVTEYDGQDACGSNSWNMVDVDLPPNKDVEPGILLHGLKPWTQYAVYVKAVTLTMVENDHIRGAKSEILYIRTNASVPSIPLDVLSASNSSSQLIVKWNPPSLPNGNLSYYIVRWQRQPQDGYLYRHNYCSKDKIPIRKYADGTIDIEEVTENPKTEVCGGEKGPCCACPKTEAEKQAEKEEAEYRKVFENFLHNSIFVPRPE
# Sequence of Insulin-like growth factor 1 receptor (P08069 741-1367 limits assumed): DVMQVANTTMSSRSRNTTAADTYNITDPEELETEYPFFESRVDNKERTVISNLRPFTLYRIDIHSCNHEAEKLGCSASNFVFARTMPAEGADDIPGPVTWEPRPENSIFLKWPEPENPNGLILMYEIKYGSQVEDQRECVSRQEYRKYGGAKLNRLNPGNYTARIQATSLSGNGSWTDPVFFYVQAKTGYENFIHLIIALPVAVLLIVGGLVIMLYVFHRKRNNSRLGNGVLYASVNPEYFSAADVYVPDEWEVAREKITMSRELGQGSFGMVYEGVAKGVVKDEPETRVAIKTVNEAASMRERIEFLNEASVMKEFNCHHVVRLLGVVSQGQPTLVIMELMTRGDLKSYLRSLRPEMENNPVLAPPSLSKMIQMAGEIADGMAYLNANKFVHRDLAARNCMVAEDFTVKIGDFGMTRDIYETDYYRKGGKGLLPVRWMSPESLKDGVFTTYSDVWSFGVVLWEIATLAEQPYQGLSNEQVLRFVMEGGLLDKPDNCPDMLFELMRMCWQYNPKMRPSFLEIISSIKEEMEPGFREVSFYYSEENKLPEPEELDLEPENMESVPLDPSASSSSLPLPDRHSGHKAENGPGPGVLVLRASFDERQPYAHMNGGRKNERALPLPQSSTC
# [18] = molecular target: Mitogen-activated protein kinase 8 (Homo sapiens, UniProt P45983); format: functional;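 also: value comes from one member of a kinome-wide kinase profiling panel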
# Sequence of Mitogen-activated protein kinase 8 (P45983 whole entry): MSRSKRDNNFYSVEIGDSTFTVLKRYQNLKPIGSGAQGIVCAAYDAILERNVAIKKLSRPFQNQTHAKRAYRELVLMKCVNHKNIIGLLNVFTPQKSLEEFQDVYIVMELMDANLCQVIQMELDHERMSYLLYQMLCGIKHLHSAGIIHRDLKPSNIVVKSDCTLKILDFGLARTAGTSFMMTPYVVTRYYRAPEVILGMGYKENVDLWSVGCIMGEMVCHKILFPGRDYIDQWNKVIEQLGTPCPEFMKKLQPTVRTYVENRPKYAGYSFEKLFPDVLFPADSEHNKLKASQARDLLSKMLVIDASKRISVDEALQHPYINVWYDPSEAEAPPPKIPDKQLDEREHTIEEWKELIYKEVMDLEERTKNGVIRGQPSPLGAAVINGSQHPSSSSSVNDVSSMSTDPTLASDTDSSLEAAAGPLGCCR
# [19] = molecular target: Tyrosine-protein kinase Lck (Homo sapiens, UniProt P06239); format: functional;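 also: lck was assayed as one member of a kinase panel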
# [20] = molecular target: Dual specificity tyrosine-phosphorylation-regulated kinase 1A (Homo sapiens, UniProt Q13627); format: functional;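 also: measured against DYRK1A as one member of a broad kinome profiling panel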
# [21] = molecular target: Serine/threonine-protein kinase Nek2 (Homo sapiens, UniProt P51955); format: functional
# [22] = molecular target: Tyrosine-protein kinase ABL1 (Homo sapiens, UniProt P00519); format: functional
# [23] = molecular target: 5'-AMP-activated protein kinase catalytic subunit alpha-1 (Homo sapiens, UniProt Q13131); format: functional
# Sequence of 5'-AMP-activated protein kinase catalytic subunit alpha-1 (Q13131 whole entry): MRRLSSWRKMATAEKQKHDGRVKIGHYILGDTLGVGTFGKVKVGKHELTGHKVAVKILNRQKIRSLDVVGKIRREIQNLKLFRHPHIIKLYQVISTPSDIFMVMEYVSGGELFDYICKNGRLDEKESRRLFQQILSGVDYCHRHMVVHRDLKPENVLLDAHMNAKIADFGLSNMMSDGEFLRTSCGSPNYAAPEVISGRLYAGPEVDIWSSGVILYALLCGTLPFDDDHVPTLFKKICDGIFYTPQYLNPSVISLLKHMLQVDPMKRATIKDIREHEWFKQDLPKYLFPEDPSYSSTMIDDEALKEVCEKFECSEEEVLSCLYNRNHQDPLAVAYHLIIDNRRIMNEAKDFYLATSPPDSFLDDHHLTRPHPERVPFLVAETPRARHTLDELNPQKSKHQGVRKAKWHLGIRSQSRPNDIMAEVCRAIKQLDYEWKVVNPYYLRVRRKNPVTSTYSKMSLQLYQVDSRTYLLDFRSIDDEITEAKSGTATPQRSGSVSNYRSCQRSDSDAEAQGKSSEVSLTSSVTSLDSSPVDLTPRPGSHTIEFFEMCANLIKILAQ
# [24] = molecular target: Vascular endothelial growth factor receptor 2 (Homo sapiens, UniProt P35968); format: functional
# Sequence of Vascular endothelial growth factor receptor 2 (P35968 whole entry): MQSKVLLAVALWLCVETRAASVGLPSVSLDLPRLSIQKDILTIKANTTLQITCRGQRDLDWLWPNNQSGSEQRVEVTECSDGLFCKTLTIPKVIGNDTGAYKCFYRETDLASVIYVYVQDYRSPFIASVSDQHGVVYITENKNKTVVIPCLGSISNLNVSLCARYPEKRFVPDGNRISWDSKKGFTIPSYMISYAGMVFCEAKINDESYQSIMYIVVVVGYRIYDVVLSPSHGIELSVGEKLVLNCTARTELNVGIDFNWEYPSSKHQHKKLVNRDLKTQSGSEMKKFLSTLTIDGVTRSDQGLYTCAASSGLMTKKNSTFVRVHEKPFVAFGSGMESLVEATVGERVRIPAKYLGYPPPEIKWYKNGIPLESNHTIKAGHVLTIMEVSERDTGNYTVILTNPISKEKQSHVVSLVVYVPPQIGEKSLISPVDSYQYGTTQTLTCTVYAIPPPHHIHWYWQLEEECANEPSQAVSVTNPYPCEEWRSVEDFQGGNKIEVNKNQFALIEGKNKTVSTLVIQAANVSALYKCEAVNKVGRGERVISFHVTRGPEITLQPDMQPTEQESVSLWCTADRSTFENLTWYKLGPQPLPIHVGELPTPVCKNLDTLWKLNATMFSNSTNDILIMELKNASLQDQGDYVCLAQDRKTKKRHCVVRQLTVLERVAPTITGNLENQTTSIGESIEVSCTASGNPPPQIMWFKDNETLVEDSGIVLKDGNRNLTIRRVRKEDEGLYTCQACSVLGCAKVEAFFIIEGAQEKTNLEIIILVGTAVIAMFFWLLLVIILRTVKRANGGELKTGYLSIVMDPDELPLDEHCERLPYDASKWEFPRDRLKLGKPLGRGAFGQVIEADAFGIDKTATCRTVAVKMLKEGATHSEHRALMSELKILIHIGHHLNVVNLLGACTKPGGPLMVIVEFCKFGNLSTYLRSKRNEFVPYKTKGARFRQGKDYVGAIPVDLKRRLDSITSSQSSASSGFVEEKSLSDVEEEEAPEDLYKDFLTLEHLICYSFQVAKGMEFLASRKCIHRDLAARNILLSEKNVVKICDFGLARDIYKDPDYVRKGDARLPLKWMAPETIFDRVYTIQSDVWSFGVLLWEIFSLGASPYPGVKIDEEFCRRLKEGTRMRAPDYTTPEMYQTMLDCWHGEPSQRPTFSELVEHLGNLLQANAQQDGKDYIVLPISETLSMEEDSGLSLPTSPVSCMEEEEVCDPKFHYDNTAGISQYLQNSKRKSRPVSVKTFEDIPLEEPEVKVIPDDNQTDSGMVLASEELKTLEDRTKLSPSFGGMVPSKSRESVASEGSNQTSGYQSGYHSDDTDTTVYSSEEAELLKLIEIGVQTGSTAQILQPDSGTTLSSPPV
# [25] = molecular target: Fibroblast growth factor receptor 1 (Homo sapiens, UniProt P11362); format: functional
# [26] = molecular target: Mitogen-activated protein kinase 9 (Homo sapiens, UniProt P45984); format: functional;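 also: value from a kinome panel profiling assay, MAPK9 panel entry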
Structure (SMILES),AC50 [1],Ki [2],Ki [3],Ki [4],Ki [5],Ki [6],Ki (Aurora kinase A),Ki [7],Ki [8],Ki [9],Ki [10],Ki [11],Ki [12],Ki [13],Ki [14],Ki (Aurora kinase B),Ki [15],Ki [16],Ki [17],Ki [18],further results
O=C1C=C(NCc2ccccc2)c2ccccc2C1=O,2.16 µM (active),,,,,,,,,,,,,,,,,,,,
O=C(O)c1[nH]c2ccccc2c1C(c1cc(Cl)cc([N+](=O)[O-])c1O)c1c(C(=O)O)[nH]c2ccccc12,16.6 µM (active),,,,,,,,,,,,,,,,,,,,
Cc1cc(=O)[nH]nc1-c1ccc(NC(=O)Nc2cc(C(F)(F)F)ccc2F)c(Cl)c1,,> 3.16 µM (inactive),> 1.26 µM (inactive),> 2.51 µM (inactive),> 2.51 µM (inactive),> 5.01 µM (inactive),> 1.58 µM (inactive),0.01 µM (active),> 5.01 µM (inactive),> 6.31 µM (inactive),> 3.98 µM (inactive),> 3.16 µM (inactive),> 3.98 µM (inactive),> 3.98 µM (inactive),> 5.01 µM (inactive),> 3.98 µM (inactive),> 6.31 µM (inactive),> 3.98 µM (inactive),> 2.51 µM (inactive),> 5.01 µM (inactive),Ki [19]: > 6.31 µM (inactive); Ki [20]: > 2 µM (inactive); Ki [21]: > 3.16 µM (inactive); Ki [22]: > 2.51 µM (inactive); Ki [23]: > 3.16 µM (inactive); Ki [24]: 0.316 µM (active); Ki [25]: > 3.98 µM (inactive); Ki [26]: > 3.98 µM (inactive)
CCOC(=O)c1cn(-c2ccc(O)cc2C)c2cc(-c3ccncc3)ccc2c1=O,,> 7.94 µM (inactive),1.26 µM (active),> 1.58 µM (inactive),> 2.51 µM (inactive),> 1.58 µM (inactive),> 6.31 µM (inactive),> 5.01 µM (inactive),> 1.26 µM (inactive),> 0.794 µM (inactive),> 6.31 µM (inactive),5.01 µM (active),7.94 µM (active),> 0.398 µM (inactive),> 5.01 µM (inactive),> 6.31 µM (inactive),> 10 µM (inactive),> 7.94 µM (inactive),> 1 µM (inactive),> 3.16 µM (inactive),Ki [19]: > 2.51 µM (inactive); Ki [20]: > 6.31 µM (inactive); Ki [21]: > 10 µM (inactive); Ki [22]: > 0.631 µM (inactive); Ki [23]: > 10 µM (inactive); Ki [24]: > 7.94 µM (inactive); Ki [25]: > 5.01 µM (inactive); Ki [26]: > 3.98 µM (inactive)
